Measured values reported in US20210052701A1, “Methods of Treating Vascular Leakage Using CXCL12 Peptides” (The Medical College of Wisconsin, Inc., priority 2018, published 2021).
“Also recorded” adds a separate entry of the source.

What was measured:
[1] = system: animal model of acute respiratory distress syndrome (ARDS); test: Animal model of ARDS: lung ischemia reperfusion injury plus hemorrhage (P:F ratio, lung injury score); format: in vivo, Sprague-Dawley rats
Description: Animals underwent 70 min of […] lung ischemia for 70 min plus hemorrhage to a MAP of 40 mmHg for the last 30 min of ischemia, followed by fluid resuscitation to a MAP of 60 mmHg until t=300 min. Arrow: drug injection. Dashed lines indicate the P:F ratio (mmHg) threshold values for the diagnosis of mild, moderate and severe ARDS. Vehicle: n=5. CXCL12: n=3. CXCL12: n=4. CXCL12-LM: n=3, CXCL12-LD: n=4. CXCL12 K27A/R41A/R47A: n=3. LI+HEM: lung ischemia reperfusion injury plus hemorrhage. Data are mean±SEM. *: p<0.05 vs. vehicle (2-way ANOVA/Dunnett's multiple comparisons test).
FIGS. 12A-12C show lung histology after treatment with CXCL12 and engineered CXCR4 agonists A. Lung specimens were placed in formalin fixative solution and were then embedded in paraffin wax, sliced into 5 μm sections and stained with H&E. Representative images from H&E stained lung sections from animals after vehicle (left) and CXCL12 ([…], right treatment. B/C. Lung injury scores (B. uninjured (left) lung; C. injured (right) lung). Data are median±interquartile ranges. Data were analyzed with the Kruskal Wallis test with Dunn's multiple comparisons test. The level of statistical significance (p) vs. ctrl. (vehicle treatment) indicated.
We tested therapeutic efficacy of wild-type CXCL12, CXXL12-locked dimer (LD), CXCL12-locked monomer (LM) and the triple mutant CXCL12 K27A/R41A/R47A in an animal model of acute respiratory distress syndrome (ARDS) (FIG. 11). All drugs were injected in a dose of 0.14 μmol/kg. Male Sprague-Dawley rats were anesthetized, orotracheally intubated, instrumented with arterial/venous catheters, and mechanically ventilated (PEEP 2 mmHg, FiO2 1.0). After a right lateral thoracotomy, a suture was tied around the hilum of the right lung. Animals underwent 70 min of right lung ischemia plus hemorrhage to a mean arterial blood pressure (MAP) of 40 mmHg for the last 30 min of lung ischemia. At t=70 min, the suture was removed, animals were ventilated with FiO2 1.0, PEEP 5 mmHg and resuscitated with crystalloids to a MAP of 60 mmHg until t=300 min. Vehicle and drugs were injected i.v. within 10 min after reperfusion.
We further evaluated histomorphology of the lungs from animals treated with vehicle, wild-type CXCL12, CXCL12-LD and CXCXL12-LM utilizing a standardized lung injury score. Lung slides stained with hematoxylin and eosin were examined under a light microscope by 4 investigators blinded to the identity of the specimens. The lung injury score was assessed as previously described/. In brief each investigator rendered a score of 0 (no damage) to 4+(maximal damage) based on an injury grading scale composed of six criteria. The slides were assessed for the extent of alveolar congestion, hemorrhage and edema, as well as alveolar and vessel wall PMN infiltration and alveolar wall thickness. […] Lung injury scores of the uninjured and injured lungs from animals treated with vehicle, wild-type CXCL12, CXCL12-LD and CXCXL12-LM are shown in FIGS. […], respectively.

[2] = system: hPPAEC; test: Effects of CXCR4 agonists / CXCL12 variants on thrombin-induced impairment of hPPAEC monolayer permeability; format: cell-based, human
Summary of the method: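 Confluent hPPAEC monolayers on collagen-coated permeable membranes were exposed to 35 nM thrombin; 10 min later, agonists or CXCL12 variants (0.05–50 nM) were added, ± AMD3100 10 μM. FITC-dextran (20 μg/mL) crossing the monolayer was read by fluorescence over 255 min. % inhibition of hyperpermeability was taken at 255 min; N=3 in quadruplicate.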

Substance: CXCL12: Wild-type CXCL12 (SEQ ID NO:1), cognate agonist of CXCR4 and ACKR3
- development of ARDS (P:F ratio) ([1]; 0.14 μmol/kg i.v. within 10 min after reperfusion, until t=300 min): development of ARDS was delayed and attenuated
- time at which criteria for mild ARDS were fulfilled ([1]; 0.14 μmol/kg i.v., P:F ratio<300 mmHg): 300 min
- P:F ratios compared with vehicle treated animals ([1]; 0.14 μmol/kg i.v., t=90-240 min): significantly higher
- histological signs of lung injury, injured lung (lung injury score) ([1]; H&E sections, vs. vehicle): significantly reduced
- effect of pre-treatment on thrombin-induced hyper-permeability of hPPAEC ([2]; 100 nM for 10 min, then thrombin (50 nM)): significantly attenuated thrombin-induced hyper-permeability of hPPAEC; also recorded: more efficacious than ubiquitin
- effect on thrombin-induced permeability of hPPAEC when added after thrombin ([2]; thrombin 35 nM, after 10 min CXCL12 or ubiquitin 50 nM, AMD3100 10 μM): significantly attenuated thrombin-induced permeability of hPPAEC
